Measured values published in ChEMBL document CHEMBL3046897, “Synthesis of 3-{4-[4-dimethylamino-6-(4-methyl-2-oxo-2H-chromen-7-yloxy)-[1,3,5]triazin-2-ylamino]-phenyl}-2-phenyl-5-(4-pyridin-2-yl-piperazin-1-ylmethyl)-thiazolidin-4-one and their biological evaluation” (2012).
Values after ≈ are worked out from the molar mass of the structure shown.

How the values were obtained:
Assay type in all cases: functional
Bacillus subtilis [1] = test: Antibacterial activity against Bacillus subtilis at 100 ug/disk after 24 hr by paper disk diffusion method; conditions: read-out: IZ
Aspergillus clavatus [2] = test: Antifungal activity against Aspergillus clavatus after 48 hr by agar streak dilution method
Salmonella typhi [3] = test: Antibacterial activity against Salmonella enterica subsp. enterica serovar Typhi at 100 ug/disk after 24 hr by paper disk diffusion method; conditions: read-out: IZ
Shigella flexneri [4] = test: Antibacterial activity against Shigella flexneri at 100 ug/disc after 24 hr by paper disk diffusion method; conditions: read-out: IZ
Aspergillus fumigatus [5] = test: Antifungal activity against Aspergillus fumigatus after 48 hr by agar streak dilution method
Escherichia coli [6] = test: Antibacterial activity against Escherichia coli after 24 hr by agar streak dilution method
Klebsiella pneumoniae [7] = test: Antibacterial activity against Klebsiella pneumoniae after 24 hr by agar streak dilution method
Shigella flexneri [8] = test: Antibacterial activity against Shigella flexneri after 24 hr by agar streak dilution method
Pseudomonas aeruginosa [9] = test: Antibacterial activity against Pseudomonas aeruginosa at 100 ug/disk after 24 hr by paper disk diffusion method; conditions: read-out: IZ
Pseudomonas aeruginosa [10] = test: Antibacterial activity against Pseudomonas aeruginosa after 24 hr by agar streak dilution method
Aspergillus clavatus [11] = test: Antifungal activity against Aspergillus clavatus at 100 ug/disc after 48 hr by paper disk diffusion method; conditions: read-out: IZ
Candida albicans [12] = test: Antifungal activity against Candida albicans after 48 hr by agar streak dilution method
Proteus vulgaris [13] = test: Antibacterial activity against Proteus vulgaris at 100 ug/disk after 24 hr by paper disk diffusion method; conditions: read-out: IZ
Klebsiella pneumoniae [14] = test: Antibacterial activity against Klebsiella pneumoniae at 100 ug/disk after 24 hr by paper disk diffusion method; conditions: read-out: IZ
Bacillus subtilis [15] = test: Antibacterial activity against Bacillus subtilis after 24 hr by agar streak dilution method
Aspergillus niger [16] = test: Antifungal activity against Aspergillus niger at 100 ug/disk after 48 hr by paper disk diffusion method; conditions: read-out: IZ
Staphylococcus aureus [17] = test: Antibacterial activity against Staphylococcus aureus after 24 hr by agar streak dilution method
Escherichia coli [18] = test: Antibacterial activity against Escherichia coli at 100 ug/disk after 24 hr by paper disk diffusion method; conditions: read-out: IZ
Staphylococcus aureus [19] = test: Antibacterial activity against Staphylococcus aureus at 100 ug/disc after 24 hr by paper disk diffusion method; conditions: read-out: IZ
Candida albicans [20] = test: Antifungal activity against Candida albicans at 100 ug/disk after 48 hr by paper disk diffusion method; conditions: read-out: IZ
Salmonella typhi [21] = test: Antibacterial activity against Salmonella enterica subsp. enterica serovar Typhi after 24 hr by agar streak dilution method
Aspergillus fumigatus [22] = test: Antifungal activity against Aspergillus fumigatus at 100 ug/disc after 48 hr by paper disk diffusion method; conditions: read-out: IZ
Aspergillus niger [23] = test: Antifungal activity against Aspergillus niger after 48 hr by agar streak dilution method
Proteus vulgaris [24] = test: Antibacterial activity against Proteus vulgaris after 24 hr by agar streak dilution method

Compound | zone of inhibition at 100 µg/disc (Bacillus subtilis [1]) [mm] | MIC (Aspergillus clavatus [2]) [µg/mL] | zone of inhibition at 100 µg/disc (Salmonella typhi [3]) [mm] | zone of inhibition at 100 µg/disc (Shigella flexneri [4]) [mm] | MIC (Aspergillus fumigatus [5]) [µg/mL] | MIC (Escherichia coli [6]) [µg/mL] | MIC (Klebsiella pneumoniae [7]) [µg/mL] | MIC (Shigella flexneri [8]) [µg/mL] | zone of inhibition at 100 µg/disc (Pseudomonas aeruginosa [9]) [mm] | MIC (Pseudomonas aeruginosa [10]) [µg/mL] | zone of inhibition at 100 µg/disc (Aspergillus clavatus [11]) [mm] | MIC (Candida albicans [12]) [µg/mL] | zone of inhibition at 100 µg/disc (Proteus vulgaris [13]) [mm] | zone of inhibition at 100 µg/disc (Klebsiella pneumoniae [14]) [mm] | MIC (Bacillus subtilis [15]) [µg/mL] | zone of inhibition at 100 µg/disc (Aspergillus niger [16]) [mm] | MIC (Staphylococcus aureus [17]) [µg/mL] | zone of inhibition at 100 µg/disc (Escherichia coli [18]) [mm] | zone of inhibition at 100 µg/disc (Staphylococcus aureus [19]) [mm] | zone of inhibition at 100 µg/disc (Candida albicans [20]) [mm] | further results
COc1ccc(C2SC(CN3CCN(c4ccccn4)CC3)C(=O)N2c2ccc(Nc3nc(Oc4ccc5c(C)cc(=O)oc5c4)nc(N(C)C)n3)cc2)cc1 (stereo not given) | 19 | 50 (≈ 64.8 µM) | 22 | 17 | 25 (≈ 32.4 µM) | 100 (≈ 130 µM) | 50 (≈ 64.8 µM) | 100 (≈ 130 µM) | 18 | 100 (≈ 130 µM) | 19 | 25 (≈ 32.4 µM) | 20 | 19 | 25 (≈ 32.4 µM) | 22 | 25 (≈ 32.4 µM) | 16 | 21 | 23 | MIC (Salmonella typhi [21]): 25 µg/mL (≈ 32.4 µM); zone of inhibition at 100 µg/disc (Aspergillus fumigatus [22]): 20 mm; MIC (Aspergillus niger [23]): 25 µg/mL (≈ 32.4 µM); MIC (Proteus vulgaris [24]): 50 µg/mL (≈ 64.8 µM)
Cc1cc(=O)oc2cc(Oc3nc(Nc4ccc(N5C(=O)C(CN6CCN(c7ccccn7)CC6)SC5c5ccc(O)cc5)cc4)nc(N(C)C)n3)ccc12 (stereo not given) | 25 | 25 (≈ 33 µM) | 27 | 22 | 6.25 (≈ 8.25 µM) | 6.25 (≈ 8.25 µM) | 25 (≈ 33 µM) | 25 (≈ 33 µM) | 23 | 12.5 (≈ 16.5 µM) | 21 | 12.5 (≈ 16.5 µM) | 25 | 19 | 6.25 (≈ 8.25 µM) | 27 | 6.25 (≈ 8.25 µM) | 30 | 27 | 23 | MIC (Salmonella typhi [21]): 6.25 µg/mL (≈ 8.25 µM); zone of inhibition at 100 µg/disc (Aspergillus fumigatus [22]): 25 mm; MIC (Aspergillus niger [23]): 6.25 µg/mL (≈ 8.25 µM); MIC (Proteus vulgaris [24]): 12.5 µg/mL (≈ 16.5 µM)
Cc1cc(=O)oc2cc(Oc3nc(Nc4ccc(N5C(=O)C(CN6CCN(c7ccccn7)CC6)SC5c5cccc(F)c5)cc4)nc(N(C)C)n3)ccc12 (stereo not given) | 21 | 12.5 (≈ 16.5 µM) | 23 | 25 | 25 (≈ 32.9 µM) | 6.25 (≈ 8.23 µM) | 50 (≈ 65.8 µM) | 12.5 (≈ 16.5 µM) | 21 | 25 (≈ 32.9 µM) | 25 | 12.5 (≈ 16.5 µM) | 21 | 20 | 12.5 (≈ 16.5 µM) | 23 | 25 (≈ 32.9 µM) | 28 | 19 | 21 | MIC (Salmonella typhi [21]): 25 µg/mL (≈ 32.9 µM); zone of inhibition at 100 µg/disc (Aspergillus fumigatus [22]): 19 mm; MIC (Aspergillus niger [23]): 12.5 µg/mL (≈ 16.5 µM); MIC (Proteus vulgaris [24]): 50 µg/mL (≈ 65.8 µM)
Cc1cc(=O)oc2cc(Oc3nc(Nc4ccc(N5C(=O)C(CN6CCN(c7ccccn7)CC6)SC5c5ccc(Cl)cc5Cl)cc4)nc(N(C)C)n3)ccc12 (stereo not given) | 23 | 25 (≈ 30.8 µM) | 18 | 20 | 50 (≈ 61.7 µM) | 25 (≈ 30.8 µM) | 25 (≈ 30.8 µM) | 25 (≈ 30.8 µM) | 18 | 50 (≈ 61.7 µM) | 23 | 50 (≈ 61.7 µM) | 21 | 21 | 12.5 (≈ 15.4 µM) | 18 | 25 (≈ 30.8 µM) | 19 | 22 | 20 | MIC (Salmonella typhi [21]): 50 µg/mL (≈ 61.7 µM); zone of inhibition at 100 µg/disc (Aspergillus fumigatus [22]): 19 mm; MIC (Aspergillus niger [23]): 50 µg/mL (≈ 61.7 µM); MIC (Proteus vulgaris [24]): 12.5 µg/mL (≈ 15.4 µM)
Cc1cc(=O)oc2cc(Oc3nc(Nc4ccc(N5C(=O)C(CN6CCN(c7ccccn7)CC6)SC5c5ccccc5Br)cc4)nc(N(C)C)n3)ccc12 (stereo not given) | 22 | 12.5 (≈ 15.2 µM) | 14 | 15 | 6.25 (≈ 7.61 µM) | 50 (≈ 60.9 µM) | 50 (≈ 60.9 µM) | 100 (≈ 122 µM) | 22 | 25 (≈ 30.5 µM) | 23 | 12.5 (≈ 15.2 µM) | 19 | 17 | 25 (≈ 30.5 µM) | 25 | 50 (≈ 60.9 µM) | 20 | 20 | 25 | MIC (Salmonella typhi [21]): 100 µg/mL (≈ 122 µM); zone of inhibition at 100 µg/disc (Aspergillus fumigatus [22]): 27 mm; MIC (Aspergillus niger [23]): 25 µg/mL (≈ 30.5 µM); MIC (Proteus vulgaris [24]): 50 µg/mL (≈ 60.9 µM)
Cc1cc(=O)oc2cc(Oc3nc(Nc4ccc(N5C(=O)C(CN6CCN(c7ccccn7)CC6)SC5c5ccccc5)cc4)nc(N(C)C)n3)ccc12 (stereo not given) | 16 | 100 (≈ 135 µM) | 14 | 15 | 100 (≈ 135 µM) | 100 (≈ 135 µM) | 100 (≈ 135 µM) | 100 (≈ 135 µM) | 19 | 50 (≈ 67.4 µM) | 16 | 100 (≈ 135 µM) | 13 | 13 | 100 (≈ 135 µM) | 14 | 100 (≈ 135 µM) | 16 | 14 | 12 | MIC (Salmonella typhi [21]): 100 µg/mL (≈ 135 µM); zone of inhibition at 100 µg/disc (Aspergillus fumigatus [22]): < 10 mm; MIC (Aspergillus niger [23]): 100 µg/mL (≈ 135 µM); MIC (Proteus vulgaris [24]): 100 µg/mL (≈ 135 µM)
Cc1cc(=O)oc2cc(Oc3nc(Nc4ccc(N5C(=O)CSC5c5ccc(Cl)cc5)cc4)nc(N(C)C)n3)ccc12 (stereo not given) | 16 | 25 (≈ 41.6 µM) | 21 | 24 | 50 (≈ 83.2 µM) | 50 (≈ 83.2 µM) | 50 (≈ 83.2 µM) | 12.5 (≈ 20.8 µM) | 15 | 100 (≈ 166 µM) | 21 | 25 (≈ 41.6 µM) | 20 | 18 | 100 (≈ 166 µM) | 15 | 50 (≈ 83.2 µM) | 20 | 18 | 22 | MIC (Salmonella typhi [21]): 25 µg/mL (≈ 41.6 µM); zone of inhibition at 100 µg/disc (Aspergillus fumigatus [22]): 18 mm; MIC (Aspergillus niger [23]): 100 µg/mL (≈ 166 µM); MIC (Proteus vulgaris [24]): 25 µg/mL (≈ 41.6 µM)
COc1ccc(/C=N/c2ccc(Nc3nc(Oc4ccc5c(C)cc(=O)oc5c4)nc(N(C)C)n3)cc2)cc1 | 13 | 100 (≈ 191 µM) | 18 | 10 | 100 (≈ 191 µM) | 100 (≈ 191 µM) | 100 (≈ 191 µM) | 100 (≈ 191 µM) | 12 | 100 (≈ 191 µM) | 11 | 50 (≈ 95.7 µM) | 16 | 14 | 100 (≈ 191 µM) | 16 | 100 (≈ 191 µM) | 10 | 15 | 17 | MIC (Salmonella typhi [21]): 50 µg/mL (≈ 95.7 µM); zone of inhibition at 100 µg/disc (Aspergillus fumigatus [22]): 13 mm; MIC (Aspergillus niger [23]): 50 µg/mL (≈ 95.7 µM); MIC (Proteus vulgaris [24]): 50 µg/mL (≈ 95.7 µM)
Cc1cc(=O)oc2cc(Oc3nc(Nc4ccc(/N=C/c5ccc(F)cc5)cc4)nc(N(C)C)n3)ccc12 | 18 | 50 (≈ 97.9 µM) | 15 | 14 | 100 (≈ 196 µM) | 50 (≈ 97.9 µM) | 100 (≈ 196 µM) | 100 (≈ 196 µM) | 20 | 50 (≈ 97.9 µM) | 19 | 25 (≈ 49 µM) | 17 | < 10 | 50 (≈ 97.9 µM) | 20 | 25 (≈ 49 µM) | 16 | 20 | 21 | MIC (Salmonella typhi [21]): 50 µg/mL (≈ 97.9 µM); zone of inhibition at 100 µg/disc (Aspergillus fumigatus [22]): 14 mm; MIC (Aspergillus niger [23]): 50 µg/mL (≈ 97.9 µM); MIC (Proteus vulgaris [24]): 50 µg/mL (≈ 97.9 µM)
COc1ccc(C2SC(CN3CCN(c4ccccn4)CC3)C(=O)N2c2ccc(Nc3nc(Oc4ccc5c(C)cc(=O)oc5c4)nc(N(C)C)n3)cc2)cc1OC (stereo not given) | 17 | 50 (≈ 62.3 µM) | 17 | 19 | 100 (≈ 125 µM) | 100 (≈ 125 µM) | 100 (≈ 125 µM) | 50 (≈ 62.3 µM) | 15 | 100 (≈ 125 µM) | 17 | 100 (≈ 125 µM) | 15 | 11 | 50 (≈ 62.3 µM) | 19 | 25 (≈ 31.2 µM) | 13 | 20 | < 10 | MIC (Salmonella typhi [21]): 50 µg/mL (≈ 62.3 µM); zone of inhibition at 100 µg/disc (Aspergillus fumigatus [22]): 13 mm; MIC (Aspergillus niger [23]): 50 µg/mL (≈ 62.3 µM); MIC (Proteus vulgaris [24]): 100 µg/mL (≈ 125 µM)
